Test results as given in patent publication US20090306207A1, “Treatment of Drug-Resistant Proliferative Disorders” (priority 2005, published 2009).
One block for each molecule: values may come before it.

What was measured:
[1] = tested on: 32Dcl3 cells transfected to express wild-type or imatinib-resistant forms of BCR-ABL; assay: Growth inhibition of the panel of cells expressing wild-type or imatinib-resistant forms of BCR-ABL; type: cell-based, murine
Method: (§2) The expression of the BCR-ABL proteins was determined by Western blot and kinase assays.
(§3) The total number of viable cells was determined by trypan blue exclusion at 72 hours post-treatment. The percent viable cells compared to vehicle-treated controls was determined.
(§4) The wild type comprises 32Dcl3.BCR-ABL cells that ectopically expressed the wild-type p210^BCR-ABL oncoprotein. The total number of viable cells was determined by trypan blue exclusion at 72 hours post-treatment. The percent viable cells compared to vehicle-treated controls was determined.

[2] = tested on: 32Dcl3 cells expressing BCR-ABL L387M; assay: Cell viability (trypan blue exclusion), BCR-ABL L387M cells
Method: as §2
(§5) Transfectants were selected in the absence of IL-3.
as §3, §4

[3] = tested on: 32Dcl3 cells expressing BCR-ABL F311L; assay: Cell viability (trypan blue exclusion), BCR-ABL F311L cells
Method: (§6) Mutations corresponding to those published in the literature (Shah et al., Oncogene, 22, 7389-7395 (2003)) were introduced into the bcr-abl cDNA, which was then introduced into actively proliferating 32Dcl3 cells (Rovera et al., Oncogene 1, 29-35 (1987)) according to the following procedure.
as §2, §5, §3, §4

[4] = tested on: 32Dcl3 cells expressing BCR-ABL Y253F; assay: Cell viability (trypan blue exclusion), BCR-ABL Y253F cells
Method: as §6, §2, §5, §3, §4

[5] = tested on: 32Dcl3 cells expressing BCR-ABL E355G; assay: Cell viability (trypan blue exclusion), BCR-ABL E355G cells; type: cell-based, murine; settings: Mus musculus, 72 hours
[6] = tested on: 32Dcl3 cells expressing BCR-ABL Y253H; assay: Cell viability (trypan blue exclusion), BCR-ABL Y253H cells; type: cell-based, murine; settings: Mus musculus, 72 hours
[7] = tested on: 32Dcl3 cells expressing BCR-ABL H396R; assay: Cell viability (trypan blue exclusion), BCR-ABL H396R cells; type: cell-based, murine; settings: Mus musculus, 72 hours
[8] = tested on: 32Dcl3 cells expressing BCR-ABL E255V; assay: Cell viability (trypan blue exclusion), BCR-ABL E255V cells
Method: as §6, §2, §5, §3, §4

[9] = tested on: 32Dcl3 cells expressing BCR-ABL E255K; assay: Cell viability (trypan blue exclusion), BCR-ABL E255K cells
Method: as §2, §5, §3, §4

[10] = tested on: 32Dcl3 cells expressing BCR-ABL F317L; assay: Cell viability (trypan blue exclusion), BCR-ABL F317L cells; type: cell-based, murine; settings: Mus musculus, 72 hours
[11] = tested on: 32Dcl3 cells expressing BCR-ABL H396P; assay: Cell viability (trypan blue exclusion), BCR-ABL H396P cells; type: cell-based, murine; settings: Mus musculus, 72 hours
[12] = tested on: 32Dcl3.BCR-ABL cells expressing wild-type p210 BCR-ABL; assay: Cell viability (trypan blue exclusion), cells expressing wild-type BCR-ABL; type: cell-based, murine; settings: for GI50: Mus musculus, 72 hours
Method: (§1) Cell viability was then determined by trypan blue exclusion.
Cells expressing the wild-type p210^BCA-ABL oncoprotein (32Dcl3.BCR-ABL) or the BCR-ABL mutations G250E, T315I or M351T, were incubated with varying concentrations of Compound 4 ((E)-1-(2-(4-bromobenzylsulfonyl)vinyl)-2,4-difluorobenzene).

[13] = tested on: 32Dcl3 cells expressing BCR-ABL G250E; assay: Cell viability (trypan blue exclusion), BCR-ABL G250E cells
Method: as §6, §2, §5, §3, §4

[14] = tested on: 32Dcl3 cells expressing BCR-ABL T315I; assay: Cell viability (trypan blue exclusion), BCR-ABL T315I cells
Method: as §6, §2, §5, §3, §4

[15] = tested on: 32Dcl3 cells expressing BCR-ABL Q252H; assay: Cell viability (trypan blue exclusion), BCR-ABL Q252H cells; type: cell-based, murine; settings: 72 hours
[16] = tested on: 32Dcl3 cells expressing BCR-ABL F359V; assay: Cell viability (trypan blue exclusion), BCR-ABL F359V cells; type: cell-based, murine; settings: Mus musculus, 72 hours
[17] = tested on: 32Dcl3 cells expressing BCR-ABL M351T; assay: Cell viability (trypan blue exclusion), BCR-ABL M351T cells; type: cell-based, murine; settings: Mus musculus, 72 hours
[18] = tested on: 32Dcl3 cells expressing BCR-ABL M244V; assay: Cell viability (trypan blue exclusion), BCR-ABL M244V cells; type: cell-based, murine; settings: Mus musculus, 72 hours
normal bone marrow cells = assay: Hematopoietic colony formation assay; type: in vivo, CD-1 mice; settings: 100 mg/kg intravenous; bone marrow cells extracted after 24 hrs
Method: To examine the effects of Compound 1 on normal hematopoietic cell population in vivo, a dose of 100 mg/kg of this compound in normal saline (or saline alone as a control) was injected intravenously (tail vein injection) into CD-1 mice (10 animals per group). The effect on the in vitro hematopoietic colony formation of normal bone marrow cells derived from these mice was determined 24 hrs following administration. Bone marrow cells were extracted from the mice after 24 hrs and 2×10^5 cells were plated on methylcellulose containing appropriate cytokines for lineage specific colony formation. Colonies were counted after 5 to 14 days of incubation.

32D/BCR-ABL^T315I cells = assay: In vivo growth of cells expressing imatinib-resistant BCR-ABL T315I (blood smears); design: species or system athymic nude mice; settings: 100 mg/kg daily intraperitoneal; days 7 and 14; compared to vehicle and imatinib treated groups
Method: Blood smears on the treated mice were performed 7 and 14 days after the start of treatments. One drop of blood from each mouse was smeared onto glass slides, air dried and stained with modified Wright stain (Sigma). The T315I cells in the blood were easily visible due to their blue staining and size difference. The number of T315I cells per 10 fields was determined by counting 10 fields of view containing an equal density of red blood cells using a 40× objective on an upright Olympus microscope.

CML K562 cells = assay: Cell viability (trypan blue exclusion), K562 cells; type: cell-based
Method: K562 cells were maintained in RPMI (Roswell Park Memorial Institute) medium supplemented with 10% FBS and 1 U/ml penicillin-streptomycin.
as §1

[19] = Toxicity in treated mice (body weight, signs); settings: 100 mg/kg daily intraperitoneal for 10 days
Method: Female athymic nude mice (ncr/ncr) were injected intravenously with 1×10^6 32Dcl3 cells expressing the mutant BCR-ABL^T315I via the tail vein.
Body weights of the test animals were taken every two days.

Compound: COc1cc(OC)c(/C=C/S(=O)(=O)Cc2ccc(OC)c(NCC(=O)O)c2)c(OC)c1 [Compound 2, (E)-2-(5-((2,4,6-trimethoxystyrylsulfonyl)methyl)-2-methoxyphenylamino) acetic acid]
- sensitivity to growth-inhibitory activity ([1]; cell lines listed in Table 2, 250 nM): sensitive

Compound: O=S(=O)(/C=C/c1ccc(F)cc1F)Cc1ccc(Br)cc1 [Compound 4, (E)-1-(2-(4-bromobenzylsulfonyl)vinyl)-2,4-difluorobenzene]
- sensitivity to growth-inhibitory activity ([1]; wild-type, G250E, T315I or M351T, varying concentrations, 72 hours): sensitive

- GI50 [7]: 60 nM
- GI50 [11]: 50 nM
Compound: COc1cc(OC)c(/C=C/S(=O)(=O)Cc2ccc(OC)c(NC(C)(C)C(=O)O)c2)c(OC)c1 [Compound 3, (E)-2-(5-((2,4,6-trimethoxystyryl-sulfonyl)methyl)-2-methoxyphenylamino)-2-methylpropanoic acid]
- GI50 ([2]; Mus musculus, 72 h): 50 nM
- GI50 ([3]; Mus musculus, 72 h): 70 nM
- GI50 ([4]; 72 hours): 70 nM
- GI50 ([4]; Mus musculus, 72 h): 40 nM
- GI50 [5]: 50 nM
- GI50 [6]: 30 nM
- GI50 ([8]; Mus musculus, 72 h): 50 nM
- GI50 ([9]; Mus musculus, 72 h): 50 nM
- GI50 [10]: 60 nM
- GI50 ([12]; Wild-type): 40 nM
- GI50 ([13]; Mus musculus, 72 h): 25 nM
- GI50 ([14]; Mus musculus, 72 h): 60 nM
- sensitivity to growth-inhibitory activity ([1]; cell lines listed in Table 3, various concentrations, 72 hours): sensitive
- GI50 ([15]; Mus musculus): 40 nM
- GI50 [16]: 70 nM
- GI50 [17]: 60 nM

Compound: COc1cc(OC)c(/C=C/S(=O)(=O)Cc2ccc(OC)c(NC(C)C(=O)O)c2)c(OC)c1 (centres unmarked) [Compound 1, (E)-2-(5-((2,4,6-trimethoxystyrylsulfonyl)methyl)-2-methoxyphenylamino) propanoic acid]
- LD50 ([2]; L387M, 72 hours): 7.1 nM
- LD50 ([3]; F311L, 72 hours): 6.8 nM
- LD50 ([4]; 72 hours): 6.8 nM
- GI50 [18]: 7.8 nM
- GI50 [5]: 7.8 nM
- GI50 [6]: 7.8 nM
- GI50 [7]: 6.8 nM
- LD50 ([8]; E255V, 72 hours): 7.8 nM
- LD50 ([9]; E255K, 72 hours): 8.4 nM
- GI50 [10]: 7.8 nM
- GI50 [11]: 7.9 nM
- LD50 (loss of viability) ([12]; 32Dcl3.BCR-ABL cells, 72 hours incubation): 10 to 15 nM
- GI50 ([12]; None (wt), trypan blue exclusion): 10 nM
- LD50 ([13]; G250E, 72 hours): 5.9 nM
- LD50 ([14]; T315I, 72 hours): 7.5 nM
- colony formation of the erythroid, myeloid or lymphoid lineages (normal bone marrow cells): No reduction in colony formation
- number of T315I cells in the blood (32D/BCR-ABL^T315I cells): significantly reduced
- sensitivity to growth inhibitory activity ([1]; all transfected cell lines, including T315I mutant, various concentrations, 72 hours): extremely sensitive
- concentration inhibiting proliferation, fold less than that shown for imatinib (CML K562 cells; BCR-ABL+ cell lines (K562 and 32Dcl3.BCR-ABL)): 10 fold
- LD50 (loss of viability) (CML K562 cells; K562 cells, 72 hours incubation): 10 to 15 nM
- LD50 [15]: 7.0 nM
- GI50 [16]: 7.1 nM
- GI50 [17]: 7.8 nM

Compound: Cc1ccc(NC(=O)c2ccc(CN3CCN(C)CC3)cc2)cc1Nc1nccc(-c2cccnc2)n1 [imatinib, Imatinib]
- loss of bodyweight [19]: > 20%
